For data set [1] the following is noted: side-chain -SH versus -SeH; cited from earlier work.
A further data set deals with MCF-7. Kind of data set: Mitogenicity: cyclin D1 / cyclin G2 mRNA by q-RT-rtPCR in MCF-7 cells. The class given is cell-based, human.

Description for MCF-7: Increased expression of the gene encoding cyclin D1 and decreased expression of the gene encoding cyclin G2 are characteristic of cellular proliferation in response to signaling by mitogenic insulin analogues or IGFs.
An assay for relative mitogenicity among insulin analogues is provided by transcriptional signaling leading to reciprocal regulation of the genes encoding cyclin D1 and cyclin G2 (Glidden, M. D., et al. (2018) J. Biol. Chem. 293: 47-68).

Turning to `N[C@@H](CS)C(=O)O` [Cys, cysteine], in data set [1], the pKa result was “approximately 8.3”. Take `N[C@@H](C[SeH])C(=O)O` [Sec, selenocysteine]: in data set [1], the pKa entry is reported as “approximately 5.2”. As to “IGF-1: mitogenic growth factor, positive control”, in the data set on MCF-7, the “mitogenic signature (cyclin D1 activation, cyclin G2 repression)” value was “stimulates cyclin D1 transcription and inhibits cyclin G2 transciption to a more marked extent”.

The record behind these values is patent US20220144915A1, “STABILIZATION OF PRANDIAL OR BASAL INSULIN ANALOGUES BY AN INTERNAL DISELENIDE BRIDGE” (THE TRUSTEES OF INDIANA UNIVERSITY, priority 2019, published 2022).
